Patent US4450166A, “N-(4,5-Dihydro-thiazol-2-yl)-3-quinoline-carboxamides having anxiolytic activity” (Roussel Uclaf, priority 1981, dated 1984)
pIC50: −log10 of the molar value. Structures can show the parent of a compound that is named as a salt. Where two headings read alike, the source gives them in different places.

Tests used:
[1] = derivative of French Pat. No. 2,340,735; cited from earlier work
[2] = derivative of French Pat. No. 2,340,735; cited from earlier work; remark: listed apart in the source
[3] = biological target: receptors for benzodiazepines; experiment: Affinity for receptors for benzodiazepines (inhibition of specific bonding of ^3 H diazepam); type: binding; conditions: ^3 H diazepam 10^-9 M, rat cortex, pH of 7.4
Experimental: The test was inspired by Mohler et al. [Science, No. 198 (1977), p. 849-851] and one part of the cortex removed from the brains of males rats weighing an average of […] per 20 parts by volume of 0.32 M of sucrose solution was homogenized. After centrifugation at 1000 g of the homogenized mixture at 0° C. for 10 minutes, the surnagent was centrifuged at 30,000 g at 4° C. for 20 minutes and the culot was suspended in 20 volumes of buffered 50 mM. Tris HCl with a pH of 7.4. The suspension was centrifuged at 30,000 g for 20 minutes at 4° C. and the new culot was suspended in 50 ml of buffered Krebs Tris HCl with a pH of 7.4. Following incubation at 0° C. for 30 minutes, 2 ml of the suspension in the presence of ^3 H diazepam at a concentration of 10^-9 M alone and with increasing concentrations of the test product to determine non-specific fixation with non-radioactive diazepam at a concentration of 10^-6 M.
The incubated suspension were filtered through a Whatman GF/C filter and the filters were washed twice at 0° C. with 5 ml of buffered krebs. Tris HCl with a pH of 7.4. The radioactivity of the filter was measured by liquid scintillation and the activity of the product was expressed in I.C.50 or the concentration which inhibits by 50% the specific bonding of ^3 H diazepam determined graphically.

[4] = Anxiolytic activity (electric shock test, Apelab apparatus, Boissier et al); type: in vivo, mice; conditions: oral; for ED (maximum): Mus musculus, 0.5 h, 30 minutes before the test, groups of 10 mice, shocks over one minute, read-out: oral dose at which the number of delivered shocks increased to the maximum; for anxiolytic activity (in words): mice
Experimental: The Apelab apparatus and protocol used by Boissier et al [European J. Pharmacol., Vol. 4 (1968), p. 145] were used to determine the anxiolytic activity and 4 plates were connected to a stimulator (U. Sachs, Roucaire) which delivered electric shocks of 120 volts for 0.5 seconds. The test was effected on groups of 10 mice who had orally received the test compound 30 minutes before the test. Each animal was individually placed on the apparatus and after 15 seconds of free exploration, it was subjected to an electric shock each time as it passed from plate to another, a minimum of 3 seconds being observed between 2 shocks. The number of delivered shocks was determined over one minute and the obtained results were compared to those observed on control animals by the Dunnett test.

[5] = test system: plasmatic corticosterone level; experiment: Action against stress caused by noise by plasmatic corticosterone level; type: in vivo; conditions: Rattus norvegicus; oral; groups of 5 rats fasted 24 hours; noise stress one hour later; read-out: DE50 (oral dose which reduced by 50% the level of corticosterone)
Experimental: The test was effected on groups of 5 rats fasted for 24 hours receiving orally the test compound between 8 and 9 in the morning. One hour later, stress was applied to the animals by placing them in a cage with a noisily operated radio adjacent thereto. 30 minutes later, they received an intraperitonal prick and 10 minutes later, the animals were anesthesized with halothane. 3 ml blood samples were taken after decapitation and the seric levels of corticosterone were determined by a radio-immunological method. Counts were taken of the importance in the male rat of seric concentrations of corticosterone to determine directly without previous extraction of the hormone with 0.1 ml of the sample diluted to 1 to 100. To the test sample were added in hemolysis tubes (12×65 mm) 0.1 ml of an aqueous solution of ^3 H-- corticosterone (5000 spm) and 0.5 ml of buffered phosphate solution (0.02 M; pH of 6.9) containing 0.02% of gelatine and 0.02% of sodium nitride containing a suspension of anticorticosterone antiserum (dilution 1/300,000), sheep antiserum anti γ-globuline of rabbit (dilution of 1/50) and normal serum of rabbit treated with Dextran carbon (dilution 1/500).
The volume was adjusted to 1 ml and the mixture was incubated overnight at 4° C. The mixture was centrifuged at 3000 t/mn for 20 minutes and the surnageant was discarded. The radioactivity contained in the precipitate was measured by a counter after addition of 2 ml of scintillation liquid containing 5% of Soluene 350. The concentration of corticosterone was determined with a standard curve (0-4000 pg) established under the treatment conditions of the samples. The individual seric level of corticosterone expressed in μg/100 ml was determined as the average of 3 tests and the results were compared by the Student test to those obtained in control animals not subjected to stress. The results expressed as DE50 on the oral dose which reduced by 50% the level of corticosterone in the treated animals is reported in Table III.

[6] = Acute toxicity; type: in vivo; conditions: oral, mice

Compound	analgesic activity (in words) [1]	anxiolytic activity (in words) [2]	pIC50 [3]	ED (maximum) [4] [mg/kg]	anxiolytic activity (in words) [4]	ED50 [5] [mg/kg]	DL0 (maximum dose which did not cause any mortality after 8 days) [6] [mg/kg]
O=C(NC1=NCCS1)c1cnc2c(C(F)(F)F)cccc2c1O	has analgesic activity	devoid of anxiolytic activity					
Cl.O=C(NC1=NCCS1)c1cnc2ccccc2c1O [Example 1, N-(4,5-dihydro-thiazol-2-yl)-4-hydroxy-3-quinoline-carboxamide hydrochloride]			9.30	10	good anxoilytic activity	10	> 400
CCc1ccc2ncc(C(=O)NC3=NCCS3)c(O)c2c1.Cl [Example 2, N-(4,5-dihydro-thiazol-2-yl)-6-ethyl-4-hydroxy-3-quinoline-carboxamide hydrochloride]			9.52	20	good anxoilytic activity	15	> 400
Cc1ccc2ncc(C(=O)NC3=NCCS3)c(O)c2c1 [Example 3, N-(4,5-dihydro-thiazol-2-yl)-6-methyl-4-hydroxy-3-quinoline-carboxamide hydrochloride]			8.82				
CC(C)c1ccc2ncc(C(=O)NC3=NCCS3)c(O)c2c1 [Example 4, N-(4,5-dihydro-thiazol-2-yl)-6-isopropyl-4-hydroxy-3-quinoline-carboxamidehydrochloride]			8.66	20	good anxoilytic activity	50	> 1000
O=C(NC1=NCCS1)c1cnc2cc(Cl)ccc2c1O [Example 5, N-(4,5-dihydro-thiazol-2-yl)-7-chloro-4-hydroxy-3-quinoline-carboxamide hydrochloride]			9.05				> 1000
O=C(NC1=NCCS1)c1cnc2ccc(Cl)cc2c1O [Example 6, N-(4,5-dihydro-thiazol-2-yl)-6-chloro-4-hydroxy-3-quinoline-carboxamide hydrochloride]			9.00	50	good anxoilytic activity	50	> 400
O=C(NC1=NCCS1)c1cnc2ccc(F)cc2c1O [Example 7, N-(4,5-dihydro-thiazol-2-yl)-6-fluoro-4-hydroxy-3-quinoline-carboxamide hydrochloride]			8.89				
COc1ccc2c(O)c(C(=O)NC3=NCCS3)cnc2c1 [Example 8, N-(4,5-dihydro-thiazol-2-yl)-7-methoxy-4-hydroxy-3-quinoline-carboxamide hydrochloride]			8.92	20	good anxoilytic activity		> 400
Cc1nc2ccccc2c(O)c1C(=O)NC1=NCCS1 [Example 9, N-(4,5-dihydro-thiazol-2-yl)-2-methyl-4-hydroxy-3-quinoline-carboxamide hydrochloride]			8.59	10	good anxoilytic activity	10	> 1000
